These results are taken from US12441703B2, “Carboxamides as modulators of sodium channels” (VERTEX PHARMACEUTICALS INCORPORATED, priority 2019, dated 2025).

SMILES strings stand for the structures. Where only a bound is given, the exact number is not on record here.

Chain of human NaV 1.8 (Q9Y5Y9 whole entry, looked up, the tested form may be a part): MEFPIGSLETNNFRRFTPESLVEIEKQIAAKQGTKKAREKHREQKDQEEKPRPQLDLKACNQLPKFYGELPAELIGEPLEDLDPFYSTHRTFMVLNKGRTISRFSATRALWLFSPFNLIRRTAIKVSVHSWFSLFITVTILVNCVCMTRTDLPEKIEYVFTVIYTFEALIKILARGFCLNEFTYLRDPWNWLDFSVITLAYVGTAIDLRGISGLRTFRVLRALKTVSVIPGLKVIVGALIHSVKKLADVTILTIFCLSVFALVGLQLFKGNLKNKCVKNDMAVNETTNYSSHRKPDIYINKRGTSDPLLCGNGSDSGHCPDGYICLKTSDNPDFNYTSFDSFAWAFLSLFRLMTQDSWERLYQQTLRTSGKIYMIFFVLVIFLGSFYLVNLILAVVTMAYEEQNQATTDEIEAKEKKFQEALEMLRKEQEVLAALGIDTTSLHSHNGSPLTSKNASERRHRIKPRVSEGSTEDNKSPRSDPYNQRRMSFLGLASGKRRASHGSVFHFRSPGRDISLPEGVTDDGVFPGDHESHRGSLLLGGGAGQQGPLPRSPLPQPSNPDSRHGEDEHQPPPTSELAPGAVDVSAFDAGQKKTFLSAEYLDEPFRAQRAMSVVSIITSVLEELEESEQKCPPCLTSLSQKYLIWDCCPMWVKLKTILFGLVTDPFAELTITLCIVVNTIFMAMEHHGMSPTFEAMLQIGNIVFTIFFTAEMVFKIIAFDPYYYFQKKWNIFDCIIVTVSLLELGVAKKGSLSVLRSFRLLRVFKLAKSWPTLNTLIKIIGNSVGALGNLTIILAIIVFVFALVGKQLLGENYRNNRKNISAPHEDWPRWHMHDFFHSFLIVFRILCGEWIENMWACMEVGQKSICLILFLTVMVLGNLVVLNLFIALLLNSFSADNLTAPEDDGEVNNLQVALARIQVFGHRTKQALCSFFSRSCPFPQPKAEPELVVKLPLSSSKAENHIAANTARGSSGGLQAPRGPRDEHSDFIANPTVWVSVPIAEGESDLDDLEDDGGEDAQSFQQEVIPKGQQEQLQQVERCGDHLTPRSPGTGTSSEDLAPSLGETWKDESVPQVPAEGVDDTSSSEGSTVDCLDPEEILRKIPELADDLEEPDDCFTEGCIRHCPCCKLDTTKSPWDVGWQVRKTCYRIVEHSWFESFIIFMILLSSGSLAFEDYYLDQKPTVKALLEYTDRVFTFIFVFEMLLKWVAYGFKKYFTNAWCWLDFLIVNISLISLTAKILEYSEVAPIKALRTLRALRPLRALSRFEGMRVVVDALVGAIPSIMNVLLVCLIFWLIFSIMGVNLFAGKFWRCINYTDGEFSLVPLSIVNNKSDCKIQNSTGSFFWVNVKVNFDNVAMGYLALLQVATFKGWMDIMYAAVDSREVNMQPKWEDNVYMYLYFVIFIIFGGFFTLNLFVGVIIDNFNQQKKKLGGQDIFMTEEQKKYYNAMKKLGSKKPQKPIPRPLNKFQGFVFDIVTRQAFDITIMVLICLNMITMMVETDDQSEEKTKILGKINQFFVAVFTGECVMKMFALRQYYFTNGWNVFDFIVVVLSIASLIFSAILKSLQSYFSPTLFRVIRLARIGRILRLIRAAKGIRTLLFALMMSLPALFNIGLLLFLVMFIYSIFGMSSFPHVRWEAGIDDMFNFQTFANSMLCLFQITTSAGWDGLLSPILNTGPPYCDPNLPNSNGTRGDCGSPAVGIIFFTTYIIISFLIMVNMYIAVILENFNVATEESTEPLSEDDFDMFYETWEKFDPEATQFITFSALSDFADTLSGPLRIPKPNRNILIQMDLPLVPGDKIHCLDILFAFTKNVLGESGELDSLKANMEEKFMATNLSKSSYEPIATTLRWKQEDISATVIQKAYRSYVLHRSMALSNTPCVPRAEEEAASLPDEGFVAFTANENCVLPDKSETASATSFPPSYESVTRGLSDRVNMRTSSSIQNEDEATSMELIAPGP

This assay has as its target human NaV 1.8 (Homo sapiens, UniProt Q9Y5Y9). The experiment in a line: E-VIPR assay for detecting and measuring NaV inhibition properties. It counts as cell-based. To be noted: E-VIPR assay conducted in the presence of human serum; HEK cells expressing truncated human NaV 1.8; read-out: IC50. From the text:
Sodium ion channels are voltage-dependent proteins that can be activated by inducing membrane voltage changes by applying electric fields. The electrical stimulation instrument and methods of use, referred to as E-VIPR, are described in International Publication No. WO 2002/008748 A3 and C.-J. Huang et al. Characterization of voltage-gated sodium channel blockers by electrical stimulation and fluorescence detection of membrane potential, 24 Nature Biotech. 439-46 (2006), both of which are incorporated by reference in their entirety. The instrument comprises a microtiter plate handler, an optical system for exciting the coumarin dye while simultaneously recording the coumarin and oxonol emissions, a waveform generator, a current- or voltage-controlled amplifier, and parallel electrode pairs that are inserted into assay plate wells. Under integrated computer control, this instrument passes user-programmed electrical stimulus protocols to cells within the wells of the microtiter plate.
16-20 hours prior to running the assay on E-VIPR, HEK cells expressing a truncated form of human NaV 1.8 with full channel activity were seeded into microtiter 384-well plates, pre-coated with matrigel, at a density of 25,000 cells per well. 2.5-5% KIR2.1 Bacmam virus was added to the final cell suspension before seeding into cell plates. HEK cells were grown in Dulbecco's Modified Eagle's Medium (DMEM) supplemented with 10% FBS (Fetal Bovine Serum, qualified; Sigma #F4135), 1% NEAA (Non-Essential Amino Acids, Gibco #11140), 1% HEPES (Gibco #15630), 1% Pen-Strep (Penicillin-Streptomycin; Gibco #15140) and 5 μg/ml Blasticidin (Gibco #R210-01). Cells were expanded in vented cap cell culture flasks, with 90-95% humidity and 5% CO2.
Compound Loading Buffer (2× concentration): Na/TMA Cl Bath1 Buffer containing HS (omitted in experiments run in the absence of human serum (HS)) 50%, VABSC-1 1 mM, BSA 0.2 mg/ml (in Bath-1), KCl 9 mM, DMSO 0.75%.
• 1) To reach the final concentration in each well, 400 nL of each compound was pre-spotted (in neat DMSO) into polypropylene compound plates at 250× desired final concentration from an intermediate stock concentration of 0.075 mM, in an 11 point dose response, 3-fold dilution, resulting in a top dose of 300 nM final concentration in the cell plate. Vehicle control (neat DMSO), and positive control (an established NaV1.8 inhibitor, 25 μM final in assay in DMSO) were added manually to the outermost columns of each plate respectively. The compound plate was backfilled with 45 μL per well of Compound Loading Buffer resulting in a 250 fold dilution of compound following a 1:1 transfer of compound into the cell plate (see Step 6). Final DMSO concentration for all wells in the assay was 0.625% (0.75% DMSO was supplemented to the Compound Loading Buffer for a final DMSO concentration of 0.625%). This assay dilution protocol was adjusted to enable a higher dose range to be tested in the presence of HS or if the final assay volume was altered. • 2) Hexyl Dye Solution was prepared. • 3) Cell plates were prepared. On the day of the assay, the media was aspirated, and the cells were washed three times with 80 μL of Bath-1 buffer, maintaining 25 μL residual volume in each well. • 4) 25 μL per well of Hexyl Dye Solution was dispensed into the cell plates. The cells were incubated for 20 minutes at room temperature or ambient conditions in darkness. • 5) 45 μL per well of Compound Loading Buffer was dispensed into compound plates. • 6) The cell plates were washed three times with 80 μL per well of Bath-1 Buffer, leaving 25 µL of residual volume. Then 25 μL per well from compound plate was transferred to each cell plate. The mixture was incubated for 30 minutes at room temperature/ambient conditions. • 7) The cell plate containing compound was read on E-VIPR using the current-controlled amplifier to deliver stimulation wave pulses using a symmetrical biphasic waveform. […]
As usually defined, the IC50 is the concentration at which inhibition is half-maximal. In the case of `COc1c(F)cccc1Oc1ccc(C(F)(F)F)cc1C(=O)Nc1ccnc(C(N)=O)c1` [Compound 12, 4-[[2-(3-fluoro-2-methoxy-phenoxy)-5-(trifluoromethyl)benzoyl]amino]pyridine-2-carboxamide], the IC50 came to 2.1 µM.
Take `NC(=O)c1cc(NC(=O)c2cc(C(F)(F)F)ccc2Oc2ccc(OC3CCCCC3)cc2)ccn1` [Compound 13, 4-[[2-[4-(cyclohexoxy)phenoxy]-5-(trifluoromethyl)benzoyl]amino]pyridine-2-carboxamide]: the IC50 was more than 3 µM.
For the compound `NC(=O)c1cc(NC(=O)c2cc(C(F)(F)F)ccc2Oc2cccc(C3CCCCC3)c2)ccn1` [Compound 14, 4-[[2-(3-cyclohexylphenoxy)-5-(trifluoromethyl)benzoyl]amino]pyridine-2-carboxamide], the IC50 was more than 3 µM.
Consider `COc1ccc(Cl)cc1Oc1ccc(C(F)(F)F)cc1C(=O)Nc1ccnc(C(N)=O)c1` [Compound 15, 4-[[2-(5-chloro-2-methoxy-phenoxy)-5-(trifluoromethyl)benzoyl]amino]pyridine-2-carboxamide], for which the concentration for half-maximal inhibition (IC50) was more than 3 µM.
As to `COc1cc(Oc2ccc(C(F)(F)F)cc2C(=O)Nc2ccnc(C(N)=O)c2)ccc1F` [Compound 16, 4-[[2-(4-fluoro-3-methoxy-phenoxy)-5-(trifluoromethyl)benzoyl]amino]pyridine-2-carboxamide], the IC50 was more than 3 µM.
Turning to `NC(=O)c1cc(NC(=O)c2cc(C(F)(F)F)ccc2Oc2ccc(F)cc2F)ccn1` [Compound 17, 4-[[2-(2,4-difluorophenoxy)-5-(trifluoromethyl)benzoyl]amino]pyridine-2-carboxamide], the IC50 is more than 3 µM.
As for `CC(C)Oc1ccc(Oc2ccc(C(F)(F)F)c(F)c2C(=O)Nc2ccnc(C(N)=O)c2)c(F)c1F` [Compound 18, 4-[[6-(2,3-difluoro-4-isopropoxy-phenoxy)-2-fluoro-3-(trifluoromethyl)benzoyl]amino]pyridine-2-carboxamide], the IC50 stood at 0.019 µM.
Consider `CCOc1ccc(Oc2ccc(C(F)(F)F)c(F)c2C(=O)Nc2ccnc(C(N)=O)c2)c(F)c1F` [Compound 19, 4-[[6-(4-ethoxy-2,3-difluoro-phenoxy)-2-fluoro-3-(trifluoromethyl)benzoyl]amino]pyridine-2-carboxamide], for which the IC50 came out at 0.057 µM.
As for `NC(=O)c1cc(NC(=O)c2c(Oc3ccc(F)cc3Cl)ccc(C(F)(F)F)c2F)ccn1` [Compound 20, 4-[[6-(2-chloro-4-fluoro-phenoxy)-2-fluoro-3-(trifluoromethyl)benzoyl]amino]pyridine-2-carboxamide], the IC50 came to 0.048 µM.
As to `COc1cc(Oc2ccc(C(F)(F)F)c(F)c2C(=O)Nc2ccnc(C(N)=O)c2)ccc1F` [Compound 21, 4-[[2-fluoro-6-(4-fluoro-3-methoxy-phenoxy)-3-(trifluoromethyl)benzoyl]amino]pyridine-2-carboxamide], the IC50 came to 1 µM.
Then `NC(=O)c1cc(NC(=O)c2c(Oc3ccccc3)ccc(C(F)(F)F)c2F)ccn1` [Compound 22, 4-[[2-fluoro-6-phenoxy-3-(trifluoromethyl)benzoyl]amino]pyridine-2-carboxamide], with 0.54 µM; and `CCOc1ccc(Oc2ccc(C(F)(F)F)c(F)c2C(=O)Nc2ccnc(C(N)=O)c2)cc1` [Compound 23, 4-[[6-(4-ethoxyphenoxy)-2-fluoro-3-(trifluoromethyl)benzoyl]amino]pyridine-2-carboxamide], with 0.15 µM; and `NC(=O)c1cc(NC(=O)c2c(Oc3ccc(F)c(F)c3)ccc(C(F)(F)F)c2F)ccn1` [Compound 24, 4-[[6-(3,4-difluorophenoxy)-2-fluoro-3-(trifluoromethyl)benzoyl]amino]pyridine-2-carboxamide], with 0.2 µM.
For `NC(=O)c1cc(NC(=O)c2c(Oc3ccc(F)c(Cl)c3)ccc(C(F)(F)F)c2F)ccn1` [Compound 25, 4-[[6-(3-chloro-4-fluoro-phenoxy)-2-fluoro-3-(trifluoromethyl)benzoyl]amino]pyridine-2-carboxamide], the IC50 turned out to be 0.16 µM.
Regarding `Cc1nc(C(F)(F)F)ccc1Oc1ccc(C(F)(F)F)c(F)c1C(=O)Nc1ccnc(C(N)=O)c1` [Compound 26, 4-[[2-fluoro-6-[[2-methyl-6-(trifluoromethyl)-3-pyridyl]oxy]-3-(trifluoromethyl)benzoyl]amino]pyridine-2-carboxamide], the IC50 was 1.3 µM.
Then `COc1ccc(Cl)cc1Oc1ccc(C(F)(F)F)c(F)c1C(=O)Nc1ccnc(C(N)=O)c1` [Compound 27, 4-[[6-(5-chloro-2-methoxy-phenoxy)-2-fluoro-3-(trifluoromethyl)benzoyl]amino]pyridine-2-carboxamide], with 0.17 µM.
As for `CC(C)Oc1ccc(Oc2ccc(C(F)(F)F)c(F)c2C(=O)Nc2ccnc(C(N)=O)c2)cc1F` [Compound 28, 4-[[2-fluoro-6-(3-fluoro-4-isopropoxy-phenoxy)-3-(trifluoromethyl)benzoyl]amino]pyridine-2-carboxamide], the IC50 stood at 0.024 µM.
Consider `CCOc1ccc(Oc2ccc(C(F)(F)F)c(F)c2C(=O)Nc2ccnc(C(N)=O)c2)cc1F` [Compound 29, 4-[[6-(4-ethoxy-3-fluoro-phenoxy)-2-fluoro-3-(trifluoromethyl)benzoyl]amino]pyridine-2-carboxamide], for which the IC50 was 0.045 µM.
As to `NC(=O)c1cc(NC(=O)c2c(Oc3ccc(F)c4c3OCC4)ccc(C(F)(F)F)c2F)ccn1` [Compound 30, 4-[[2-fluoro-6-[(4-fluoro-2,3-dihydrobenzofuran-7-yl)oxy]-3-(trifluoromethyl)benzoyl]amino]pyridine-2-carboxamide], the IC50 stood at 0.043 µM.
Turning to `COc1c(Oc2ccc(C(F)(F)F)c(F)c2C(=O)Nc2ccnc(C(N)=O)c2)ccc(F)c1F` [Compound 31, 4-[[6-(3,4-difluoro-2-methoxy-phenoxy)-2-fluoro-3-(trifluoromethyl)benzoyl]amino]pyridine-2-carboxamide], the IC50 came to 0.009 µM.
The same measure for `Cc1cc(Oc2ccc(C(F)(F)F)c(F)c2C(=O)Nc2ccnc(C(N)=O)c2)ccc1F` [Compound 32, 4-[[2-fluoro-6-(4-fluoro-3-methyl-phenoxy)-3-(trifluoromethyl)benzoyl]amino]pyridine-2-carboxamide]: 0.2 µM; for `CC(C)Oc1ccc(Oc2ccc(C(F)(F)F)c(F)c2C(=O)Nc2ccnc(C(N)=O)c2)cc1Cl` [Compound 33, 4-[[6-(3-chloro-4-isopropoxy-phenoxy)-2-fluoro-3-(trifluoromethyl)benzoyl]amino]pyridine-2-carboxamide]: 0.017 µM.
`COc1c(F)cccc1Oc1ccc(C(F)(F)F)c(F)c1C(=O)Nc1ccnc(C(N)=O)c1` [Compound 34, 4-[[2-fluoro-6-(3-fluoro-2-methoxy-phenoxy)-3-(trifluoromethyl)benzoyl]amino]pyridine-2-carboxamide]: the IC50 amounted to 0.12 µM.
On to `NC(=O)c1cc(NC(=O)c2c(Oc3ccc(OC4CCCCC4)cc3)ccc(C(F)(F)F)c2F)ccn1` [Compound 35, 4-[[6-[4-(cyclohexoxy)phenoxy]-2-fluoro-3-(trifluoromethyl)benzoyl]amino]pyridine-2-carboxamide], for which the IC50 was 0.51 µM.
Take `CC(F)(F)c1cc(F)ccc1Oc1ccc(C(F)(F)F)c(F)c1C(=O)Nc1ccnc(C(N)=O)c1` [Compound 36, 4-[[6-[2-(1,1-difluoroethyl)-4-fluoro-phenoxy]-2-fluoro-3-(trifluoromethyl)benzoyl]amino]pyridine-2-carboxamide]: the IC50 came to 0.18 µM.
Consider `CC(C)Oc1ccc(Oc2ccc(C(F)(F)F)c(F)c2C(=O)Nc2ccnc(C(N)=O)c2)cc1` [Compound 37, 4-[[2-fluoro-6-(4-isopropoxyphenoxy)-3-(trifluoromethyl)benzoyl]amino]pyridine-2-carboxamide], for which the IC50 stood at 0.026 µM.
